Experimental data taken from patent publication US12077503B2, “Substituted cyclic amides and their use as herbicides” (FMC CORPORATION, priority 2015, dated 2024).

Tests used:
Type in all cases: in vivo
Kochia (Kochia scoparia) [1] = assay: Test A preemergence; details: Bassia scoparia, pre-emergence, 240 h, 0 to 100 scale where 0 is no effect and 100 is complete control, read-out: Kochia plant response rating; for pest or weed control at 31 g/ha: 31 g ai/ha, Preemergence; for pest or weed control at 125 g/ha: 125 g ai/ha, preemergence, approx. 10 d
Procedure, shortened: (§1)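 Seeds sprayed preemergence with a directed soil spray, or plants at 2 to 10 cm height and one- to two-leaf stage sprayed postemergence, with test chemicals in a non-phytotoxic solvent mixture containing surfactant, in loam soil–sand blend. Injury rated visually against untreated controls after about 10 d in greenhouse, 0 (no effect) to 100 (complete control).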

[2] = test system: barnyardgrass (Echinochloa crus-galli); assay: Test A preemergence; details: Echinochloa crus-galli, pre-emergence, 240 h, Preemergence; for pest or weed control at 31 g/ha: 31 g ai/ha, 0 to 100 scale where 0 is no effect and 100 is complete control, read-out: Barnyardgrass plant response rating; for pest or weed control at 125 g/ha: 125 g ai/ha, visual injury rating after approximately 10 d, read-out: Barnyardgrass plant response rating (0 to 100 scale, 0 is no effect, 100 is complete control)
Procedure, shortened: as §1

[3] = test system: pigweed (Amaranthus retroflexus); assay: Test A preemergence; details: Amaranthus retroflexus, pre-emergence, 240 h, 0 to 100 scale where 0 is no effect and 100 is complete control, read-out: Pigweed plant response rating; for pest or weed control at 31 g/ha: 31 g ai/ha, Preemergence; for pest or weed control at 125 g/ha: 125 g ai/ha, preemergence, approx. 10 d
[4] = test system: ragweed (common ragweed, Ambrosia elatior); assay: Test A preemergence; details: Ambrosia artemisiifolia, pre-emergence, 240 h, 0 to 100 scale where 0 is no effect and 100 is complete control, read-out: Ragweed plant response rating; for pest or weed control at 31 g/ha: 31 g ai/ha, Preemergence; for pest or weed control at 125 g/ha: 125 g ai/ha, preemergence, approx. 10 d
Procedure, shortened: as §1

[5] = test system: ryegrass, Italian (Italian ryegrass, Lolium multiflorum); assay: Test A preemergence; details: Lolium multiflorum, pre-emergence, 240 h, 0 to 100 scale where 0 is no effect and 100 is complete control, read-out: Ryegrass, Italian plant response rating; for pest or weed control at 31 g/ha: 31 g ai/ha, Preemergence; for pest or weed control at 125 g/ha: 125 g ai/ha, preemergence, approx. 10 d
Procedure, shortened: as §1

[6] = test system: Galium (catchweed bedstraw, Galium aparine); assay: Test A postemergence; details: Galium, post-emergence, 240 h; for pest or weed control at 125 g/ha: 125 g ai/ha, postemergence, visual injury on 0 to 100 scale (0 no effect, 100 complete control), approx. 10 d, read-out: Galium plant response rating; for pest or weed control at 31 g/ha: Postemergence, 31 g ai/ha, visual injury after approx. 10 d, 0 to 100 scale, 0 no effect, 100 complete control, read-out: Plant response rating, Galium
Procedure, shortened: as §1

Kochia (Kochia scoparia) [7] = assay: Test A postemergence; details: Bassia scoparia, post-emergence, 240 h; for pest or weed control at 125 g/ha: 125 g ai/ha, postemergence, visual injury on 0 to 100 scale (0 no effect, 100 complete control), approx. 10 d, read-out: Kochia plant response rating; for pest or weed control at 31 g/ha: Postemergence, 31 g ai/ha, visual injury after approx. 10 d, 0 to 100 scale, 0 no effect, 100 complete control, read-out: Plant response rating, Kochia
Procedure, shortened: as §1

[8] = test system: barnyardgrass (Echinochloa crus-galli); assay: Test A postemergence; details: Echinochloa crus-galli, post-emergence, 240 h; for pest or weed control at 125 g/ha: 125 g ai/ha, postemergence, visual injury on 0 to 100 scale (0 no effect, 100 complete control), approx. 10 d, read-out: Barnyardgrass plant response rating; for pest or weed control at 31 g/ha: Postemergence, 31 g ai/ha, visual injury after approx. 10 d, 0 to 100 scale, 0 no effect, 100 complete control, read-out: Plant response rating, Barnyardgrass
Procedure, shortened: as §1

[9] = test system: blackgrass (Alopecurus myosuroides); assay: Test A postemergence; details: Alopecurus myosuroides, post-emergence, 240 h; for pest or weed control at 125 g/ha: 125 g ai/ha, postemergence, visual injury on 0 to 100 scale (0 no effect, 100 complete control), approx. 10 d, read-out: Blackgrass plant response rating; for pest or weed control at 31 g/ha: Postemergence, 31 g ai/ha, visual injury after approx. 10 d, 0 to 100 scale, 0 no effect, 100 complete control, read-out: Plant response rating, Blackgrass
Procedure, shortened: as §1

corn (Zea mays) = assay: Test A postemergence; details: Zea mays, post-emergence, 240 h; for plant injury at 125 g/ha: 125 g ai/ha, postemergence, visual injury on 0 to 100 scale (0 no effect, 100 complete control), approx. 10 d, read-out: Corn plant response rating; for Corn plant response rating (crop injury, 0 = no effect, 100 = complete kill) at 31 g/ha: Postemergence, 31 g ai/ha, visual injury after approx. 10 d, 0 to 100 scale, 100 complete control
Procedure, shortened: as §1

[10] = test system: giant foxtail (Setaria faberii); assay: Test A postemergence; details: Setaria faberi, post-emergence, 240 h; for pest or weed control at 125 g/ha: 125 g ai/ha, postemergence, visual injury on 0 to 100 scale (0 no effect, 100 complete control), approx. 10 d, read-out: Foxtail, Giant plant response rating; for pest or weed control at 31 g/ha: Postemergence, 31 g ai/ha, visual injury after approx. 10 d, 0 to 100 scale, 0 no effect, 100 complete control, read-out: Plant response rating, Foxtail, Giant
Procedure, shortened: as §1

[11] = test system: pigweed (Amaranthus retroflexus); assay: Test A postemergence; details: Amaranthus retroflexus, post-emergence, 240 h; for pest or weed control at 125 g/ha: 125 g ai/ha, postemergence, visual injury on 0 to 100 scale (0 no effect, 100 complete control), approx. 10 d, read-out: Pigweed plant response rating; for pest or weed control at 31 g/ha: Postemergence, 31 g ai/ha, visual injury after approx. 10 d, 0 to 100 scale, 0 no effect, 100 complete control, read-out: Plant response rating, Pigweed
Procedure, shortened: as §1

[12] = test system: ragweed (common ragweed, Ambrosia elatior); assay: Test A postemergence; details: Ambrosia artemisiifolia, post-emergence, 240 h; for pest or weed control at 125 g/ha: 125 g ai/ha, postemergence, visual injury on 0 to 100 scale (0 no effect, 100 complete control), approx. 10 d, read-out: Ragweed plant response rating; for pest or weed control at 31 g/ha: Postemergence, 31 g ai/ha, visual injury after approx. 10 d, 0 to 100 scale, 0 no effect, 100 complete control, read-out: Plant response rating, Ragweed
Procedure, shortened: as §1

[13] = test system: ryegrass, Italian (Italian ryegrass, Lolium multiflorum); assay: Test A postemergence; details: Lolium multiflorum, post-emergence, 240 h; for pest or weed control at 125 g/ha: 125 g ai/ha, postemergence, visual injury on 0 to 100 scale (0 no effect, 100 complete control), approx. 10 d, read-out: Ryegrass, Italian plant response rating; for pest or weed control at 31 g/ha: Postemergence, 31 g ai/ha, visual injury after approx. 10 d, 0 to 100 scale, 0 no effect, 100 complete control, read-out: Plant response rating, Ryegrass, Italian
Procedure, shortened: as §1

[14] = test system: wheat (Triticum aestivum); assay: Test A postemergence; details: Triticum aestivum, post-emergence, 240 h; for plant injury at 125 g/ha: 125 g ai/ha, postemergence, visual injury on 0 to 100 scale (0 no effect, 100 complete control), approx. 10 d, read-out: Wheat plant response rating; for plant injury at 31 g/ha: Postemergence, 31 g ai/ha, visual injury after approx. 10 d, 0 to 100 scale, 0 no effect, 100 complete control, read-out: Plant response rating, Wheat
Procedure, shortened: as §1

SMILES | pest or weed control at 31 g/ha (Kochia (Kochia scoparia) [1]) | pest or weed control at 125 g/ha (Kochia (Kochia scoparia) [1]) | pest or weed control at 31 g/ha [2] | pest or weed control at 125 g/ha [2] | pest or weed control at 31 g/ha [3] | pest or weed control at 125 g/ha [3] | pest or weed control at 31 g/ha [4] | pest or weed control at 125 g/ha [4] | pest or weed control at 31 g/ha [5] | pest or weed control at 125 g/ha [5] | pest or weed control at 125 g/ha [6] | pest or weed control at 31 g/ha [6] | pest or weed control at 125 g/ha (Kochia (Kochia scoparia) [7]) | pest or weed control at 31 g/ha (Kochia (Kochia scoparia) [7]) | pest or weed control at 125 g/ha [8] | pest or weed control at 31 g/ha [8] | pest or weed control at 125 g/ha [9] | pest or weed control at 31 g/ha [9] | plant injury at 125 g/ha (corn (Zea mays)) | Corn plant response rating (crop injury, 0 = no effect, 100 = complete kill) at 31 g/ha (corn (Zea mays)) | also measured
COc1cccc([C@H]2CN(C)C(=O)[C@@H]2C(=O)Nc2ccc(F)c(F)c2F)c1 [Compound 1063] | 10% | 20% | 100% | 100% | 0% | 0% | 0% | 30% | 0% | 0% | 50% | 30% | 0% | 0% | 90% | 70% | 30% | 20% | 50% | 0% | pest or weed control at 125 g/ha [10]: 90%; pest or weed control at 31 g/ha [10]: 80%; pest or weed control at 125 g/ha [11]: 20%; pest or weed control at 31 g/ha [11]: 0%; pest or weed control at 125 g/ha [12]: 0%; pest or weed control at 31 g/ha [12]: 0%; pest or weed control at 125 g/ha [13]: 30%; pest or weed control at 31 g/ha [13]: 0%; plant injury at 125 g/ha [14]: 40%; plant injury at 31 g/ha [14]: 0%
COc1cccc([C@H]2CN(C)C(=O)[C@@H]2C(=O)Nc2cccc(F)c2F)c1 [Compound 1062] | 0% | 20% | 100% | 100% | 0% | 0% | 70% | 0% | 10% | 20% | 50% | 0% | 0% | 0% | 90% | 70% | 30% | 0% | 0% | 0% | pest or weed control at 125 g/ha [10]: 90%; pest or weed control at 31 g/ha [10]: 90%; pest or weed control at 125 g/ha [11]: 0%; pest or weed control at 31 g/ha [11]: 0%; pest or weed control at 125 g/ha [12]: 30%; pest or weed control at 31 g/ha [12]: 30%; pest or weed control at 125 g/ha [13]: 20%; pest or weed control at 31 g/ha [13]: 0%; plant injury at 125 g/ha [14]: 30%; plant injury at 31 g/ha [14]: 0%
